Experimental findings from patent US20240140958A1, “FUSED QUADRACYCLIC COMPOUNDS, COMPOSITIONS AND USES THEREOF” (Tabomedex Biosciences, Inc., priority 2021, published 2024) are described below.

This assay addresses T1, MAPKAPK2 Recombinant Human Protein (Homo sapiens, UniProt P49137).
T1 construct: purchased ThermoFisher pv3317
Briefly: MK2 kinase assay (Z'-LYTE kinase assay kit). As to conditions: inhibition of MK2 biochemical activity; 90 min incubation at room temperature. As to the method:
Materials and Reagents for Measuring Inhibition of MK2 Biochemical Activity: • 1) Assay plate: 384 Well Low Volume Black Round Bottom Polystyrene NBS Microplate (Corning, Cat.No. 4514) • 2) MK2 kinase assay kit: Z' LYTE KINASE ASSAY KIT (ThermoFisher, Cat.No. pv3177) • 3) MAPKAPK2 Recombinant Human Protein (ThermoFisher, Cat.No. pv3317) • 4) DMSO (Vetec, Cat.No. V900090) • 5) DTT (Sigma, Cat.No. D0632)
MK2 Kinase Assay Procedure: • 1) Dispense 5 μl Kinase/Peptide Mixture to each wells of 384-well plate • 2) Add 2.5 μl 4× Test Compound to each well • 3) Add 2.5 μl 4× ATP Solution to each well • 4) After 90 minutes incubation at room temperature, add 5 μl Development Solution to each well • 5) After 60 minutes incubation at room temperature, add 5 μl stop Solution to each well • 6) Measure the Coumarin (Ex. 400 nm, Em. 445 nm) and Fluorescein (Ex. 400 nm, Em. 520 nm) emission signals on an Envision plate reader (PerkinElmer)

T1 sequence (P49137 whole entry): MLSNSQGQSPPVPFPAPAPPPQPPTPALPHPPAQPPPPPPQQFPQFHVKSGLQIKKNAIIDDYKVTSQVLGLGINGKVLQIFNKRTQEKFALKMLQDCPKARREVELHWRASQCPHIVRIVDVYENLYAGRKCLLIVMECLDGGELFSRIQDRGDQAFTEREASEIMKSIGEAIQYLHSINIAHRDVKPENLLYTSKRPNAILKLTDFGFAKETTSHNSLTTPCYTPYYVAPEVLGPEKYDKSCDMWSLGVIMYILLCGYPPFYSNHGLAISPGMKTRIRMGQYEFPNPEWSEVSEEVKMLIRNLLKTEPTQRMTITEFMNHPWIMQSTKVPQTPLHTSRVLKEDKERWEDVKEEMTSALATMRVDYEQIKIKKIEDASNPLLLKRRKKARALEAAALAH

One may read the IC50 as the concentration at which inhibition is half-maximal. Consider `N#Cc1ccc(-c2cc3n(c2)Cc2cc(N4C[C@@H](C5(N)CC5)CC4=O)ccc2-n2ccnc2-3)cc1` (stereo in doubt) [Example 49, (S)-4-(7-(4-(1-aminocyclopropyl)-2-oxopyrrolidin-1-yl)-9H-benzo[e]imidazo [2,1-c]pyrrolo[1,2-a][1,4]diazepin-12-yl)benzonitrile], for which the IC50 is below 0.05 µM. In the case of `N#Cc1ccc(-c2cc3n(c2)Cc2cc(N4C[C@@H](CN)OC4=O)ccc2-n2ccnc2-3)cc1` [Example 2], the IC50 fell in the range of 0.05 to 0.1 µM.

Consider `C[N+](C)(C)C[C@H]1CC(=O)N(c2ccc3c(c2)Cn2cc(-c4ccc(C#N)cc4)cc2-c2nccn2-3)C1` [Example 18, (S)-1-(1-(12-(4-cyanophenyl)-9H-benzo[e]imidazo[2,1-c]pyrrolo[1,2-a][1,4]diazepin-7-yl)-5-oxopyrrolidin-3-yl)-N,N,N-trimethylmethanaminium iodide], for which the IC50 lay within 0.05 to 0.1 µM. The same measure for `CC(C)(N)C1CN(c2ccc3c(c2)Cn2cc(-c4ccc(C#N)cc4)cc2-c2nccn2-3)C(=O)O1` (stereo not shown) [Example 20]: below 0.05 µM. On to `N#Cc1ccc(-c2cc3n(c2)Cc2cc(N4CCN(C5CC5)CC4=O)ccc2-n2ccnc2-3)cc1` [Example 31, 4-(7-(4-Cyclopropyl-2-oxopiperazin-1-yl)-9H-benzo[e]imidazo[2,1-c]pyrrolo [1,2-a][1,4]diazepin-12-yl)benzonitrile], for which the IC50 was 0.05 to 0.1 µM.

For `N#Cc1ccc(-c2cc3n(c2)Cc2cc(N4C[C@@H](N)CC4=O)ccc2-n2ccnc2-3)cc1` [Example 32, (S)-4-(7-(4-Amino-2-oxopyrrolidin-1-yl)-9H-benzo[e]imidazo[2,1-c]pyrrolo [1,2-a][1,4]diazepin-12-yl)benzonitrile], the IC50 lay within 0.05 to 0.1 µM. As to `[2H]C([2H])([2H])N(C([2H])([2H])[2H])C([2H])([2H])C1CCN(c2ccc3c(c2)Cn2cc(-c4ccc(C#N)cc4)cc2-c2nccn2-3)C1=O` (stereo not shown) [Example 38, 4-(7-(3-((Dideuteratedmethylamino)deuteratedmethyl)-2-oxopyrrolidin-1-yl)-9H-benzo[e]imidazo[2,1-c]pyrrolo[1,2-a][1,4]diazepin-12-yl)benzonitrile], the IC50 is below 0.05 µM.

`CN(C)CC1(C)CCN(c2ccc3c(c2)Cn2cc(-c4ccc(C#N)cc4)cc2-c2nccn2-3)C1=O` (stereo not shown) [Example 39, 4-(7-(3-((Dimethylamino)methyl)-3-methyl-2-oxopyrrolidin-1-yl)-9H-benzo[e]imidazo[2,1-c]pyrrolo[1,2-a][1,4]diazepin-12-yl)benzonitrile]: the IC50 was 0.1 to 0.2 µM. For the compound `CN(C)CCC1CCN(c2ccc3c(c2)Cn2cc(-c4ccc(C#N)cc4)cc2-c2nccn2-3)C1=O` (stereo not shown) [Example 40, 4-(7-(3-(2-(Dimethylamino)ethyl)-2-oxopyrrolidin-1-yl)-9H-benzo[e]imidazo [2,1-c]pyrrolo[1,2-a][1,4]diazepin-12-yl)benzonitrile], the IC50 is below 0.05 µM. As to `CC(C)(N)C1CCN(c2ccc3c(c2)Cn2cc(-c4ccc(C#N)cc4)cc2-c2nccn2-3)C1=O` (stereo not shown) [Example 44, 4-(7-(3-(2-Aminopropan-2-yl)-2-oxopyrrolidin-1-yl)-9H-benzo[e]imidazo [2,1-c]pyrrolo[1,2-a][1,4]diazepin-12-yl)benzonitrile], the IC50 fell in the range of 0.05 to 0.1 µM. For `CN(C)C[C@@H]1[C@@H]2CN(c3ccc4c(c3)Cn3cc(-c5ccc(C#N)cc5)cc3-c3nccn3-4)C(=O)[C@H]12` [Example 45, 4-(7-((1R,5S,6R)-6-((Dimethylamino)methyl)-2-oxo-3-azabicyclo[3.1.0]hexan-3-yl)-9H-benzo[e]imidazo[2,1-c]pyrrolo[1,2-a][1,4]diazepin-12-yl)benzonitrile] the value was 0.05 to 0.1 µM; for `CC(C)(N)C1CC(=O)N(c2ccc3c(c2)Cn2cc(-c4ccc(C#N)cc4)cc2-c2nccn2-3)C1` (stereo not shown) [Example 51], below 0.05 µM; for `CC(C)(N)[C@H]1CC(=O)N(c2ccc3c(c2)Cn2cc(-c4ccc(C#N)cc4)cc2-c2nccn2-3)C1` [Example 52], below 0.05 µM. For `CN1CCN2C(=O)N(c3ccc4c(c3)Cn3cc(-c5ccc(C#N)cc5)cc3-c3nccn3-4)C[C@H]2C1` [Example 60, (R)-4-(7-(7-Methyl-3-oxohexahydroimidazo[1,5-a]pyrazin-2(3H)-yl)-9H-benzo[e]imidazo[2,1-c]pyrrolo[1,2-a][1,4]diazepin-12-yl)benzonitrile] the value was below 0.05 µM; for `CC1(C2CC(=O)N(c3ccc4c(c3)Cn3cc(-c5ccc(C#N)cc5)cc3-c3nccn3-4)C2)CCN1` (stereo not shown) [Example 62, 4-(7-(4-(2-methylazetidin-2-yl)-2-oxopyrrolidin-1-yl)-9H-benzo[e]imidazo[2,1-c]pyrrolo[1,2-a][1,4]diazepin-12-yl)benzonitrile], below 0.05 µM; for `N#Cc1ccc(-c2cc3n(c2)Cc2cc(N4CC(C5(CO)COC(=O)N5)CC4=O)ccc2-n2ccnc2-3)cc1` (stereo not shown) [Example 63, 4-(7-(4-(4-(Hydroxymethyl)-2-oxooxazolidin-4-yl)-2-oxopyrrolidin-1-yl)-9H-benzo[e]imidazo[2,1-c]pyrrolo[1,2-a][1,4]diazepin-12-yl)benzonitrile], 0.05 to 0.1 µM. Regarding `CC1(CN2C(=O)CN(c3ccc4c(c3)Cn3cc(-c5ccc(C#N)cc5)cc3-c3nccn3-4)C2=O)CNC1` [Example 64, 4-(7-(3-((3-Methylazetidin-3-yl)methyl)-2,4-dioxoimidazolidin-1-yl)-9H-benzo[e]imidazo[2,1-c]pyrrolo[1,2-a][1,4]diazepin-12-yl)benzonitrile], the IC50 is below 0.05 µM. The same measure for `CN(C)C1CCC(C(=O)Nc2ccc3c(c2)Cn2cc(-c4ccc(C#N)cc4)cc2-c2nccn2-3)C1` (stereo not shown) [Example 78]: 0.05 to 0.1 µM; for `N#Cc1ccc(-c2cc3n(c2)Cc2cc(N4C[C@H](CO)NCC4=O)ccc2-n2ccnc2-3)cc1` [Example 80, (R)-4-(7-(5-(Hydroxymethyl)-2-oxopiperazin-1-yl)-9H-benzo[e]imidazo[2,1-c]pyrrolo[1,2-a][1,4]diazepin-12-yl)benzonitrile]: 0.05 to 0.1 µM.

As for `Cc1nnc2n1-c1ccc(N3CCC(CCN(C)C)C3=O)cc1Cn1cc(-c3ccc(C#N)cc3)cc1-2` (stereo not shown) [Example 81, 4-(7-(3-(2-(Dimethylamino)ethyl)-2-oxopyrrolidin-1-yl)-3-methyl-9H-benzo[e]pyrrolo[1,2-a][1,2,4]triazolo[3,4-c][1,4]diazepin-12-yl)benzonitrile], the IC50 lay in the range of 0.05 to 0.1 µM.

Turning to `Cc1nnc2n1-c1ccc(N3C[C@@H](CN(C)C)OC3=O)cc1Cn1cc(-c3ccc(C#N)cc3)cc1-2` [Example 83], the IC50 lay within 0.05 to 0.1 µM. Turning to `Cc1nnc2n1-c1ccc(N3CCC(CN(C)C)C3=O)cc1Cn1cc(-c3ccc(C#N)cc3)cc1-2` (stereo not shown) [Example 84], the IC50 lay within 0.05 to 0.1 µM.

For the compound `Cc1nnc2n1-c1ccc(N3CCN(CCN(C)C)C3=O)cc1Cn1cc(-c3ccc(C#N)cc3)cc1-2` [Example 85], the IC50 is below 0.05 µM.

Turning to `CN(C)C[C@H]1CC(=O)N(c2ccc3c(c2F)Cn2cc(-c4ccc(C#N)cc4)cc2-c2nccn2-3)C1` [Example 92, (R)-4-(7-(4-((Dimethylamino)methyl)-2-oxopyrrolidin-1-yl)-8-fluoro-9H-benzo[e]imidazo[2,1-c]pyrrolo[1,2-a][1,4]diazepin-12-yl)benzonitrile], the IC50 lay in the range of 0.05 to 0.1 µM. Regarding `CN1CC[C@H](NC(=O)c2ccc3c(c2)Cn2cc(-c4ccc(C#N)cc4)cc2-c2nccn2-3)C1` [Example 102], the IC50 was below 0.05 µM. On to `CN(C)C1CCN(C(=O)c2ccc3c(c2)Cn2cc(-c4ccc(C#N)cc4)cc2-c2nccn2-3)C1` (stereo not shown) [Example 103], for which the IC50 lay within 0.2 to 0.3 µM. With `CN(C)C1CN(C(=O)c2ccc3c(c2)Cn2cc(-c4ccc(C#N)cc4)cc2-c2nccn2-3)C1` [Example 104], the IC50 lay within 0.2 to 0.3 µM.

Regarding `CN1CCCC1CNC(=O)c1ccc2c(c1)Cn1cc(-c3ccc(C#N)cc3)cc1-c1nccn1-2` (stereo not shown) [Example 106], the IC50 fell in the range of 0.1 to 0.2 µM. For `CN1CCN(C(=O)c2ccc3c(c2)Cn2cc(-c4ccc(C#N)cc4)cc2-c2nccn2-3)CC1` [Example 107] the value was 0.2 to 0.3 µM; for `Cc1nnc2n1CCN(C(=O)c1ccc3c(c1)Cn1cc(-c4ccc(C#N)cc4)cc1-c1nccn1-3)C2` [Example 108], 0.2 to 0.3 µM; for `CC(C)(N)CNC(=O)c1ccc2c(c1)Cn1cc(-c3ccc(C#N)cc3)cc1-c1nccn1-2` [Example 111], 0.2 to 0.3 µM. For `CN(C)CC1CCN(C(=O)c2ccc3c(c2)Cn2cc(-c4ccc(C#N)cc4)cc2-c2nccn2-3)C1` (stereo not shown) [Example 112, 4-(7-(3-((dimethylamino)methyl)pyrrolidine-1-carbonyl)-9H-benzo[e]imidazo [2,1-c]pyrrolo[1,2-a][1,4]diazepin-12-yl)benzonitrile] the value was 0.05 to 0.1 µM; for `CN(C)C[C@H]1CCCN1C(=O)c1ccc2c(c1)Cn1cc(-c3ccc(C#N)cc3)cc1-c1nccn1-2` [Example 113], 0.2 to 0.3 µM; for `CN(C)C[C@@H]1CCCN1C(=O)c1ccc2c(c1)Cn1cc(-c3ccc(C#N)cc3)cc1-c1nccn1-2` [Example 114], 0.1 to 0.2 µM. Consider `N#Cc1ccc(-c2cc3n(c2)Cc2cc(C(=O)NCCN4CCC4)ccc2-n2ccnc2-3)cc1` [Example 118], for which the IC50 was 0.1 to 0.2 µM.

As to `CN1CC(C)(CNC(=O)c2ccc3c(c2)Cn2cc(-c4ccc(C#N)cc4)cc2-c2nccn2-3)C1` [Example 121], the IC50 lay within 0.05 to 0.1 µM.

For the compound `CN(C)[C@H]1CC[C@H](NC(=O)c2ccc3c(c2)Cn2cc(-c4ccc(C#N)cc4)cc2-c2nccn2-3)C1` [Example 122], the IC50 is 0.3 to 0.4 µM.
